Measured values published in ChEMBL document CHEMBL6096646, “Sulfonamide-derivatized galactosides selectively target an unexplored binding site in the galectin-9N-terminal domain” (Bioorg Med Chem, 2024).

Target: Galectin-7 (Homo sapiens, UniProt P47929)
Assay: Binding affinity to human Galectin-7 assessed as dissociation constant by competitive fluorescence polarization assay

Sequence of Galectin-7 (P47929 whole entry): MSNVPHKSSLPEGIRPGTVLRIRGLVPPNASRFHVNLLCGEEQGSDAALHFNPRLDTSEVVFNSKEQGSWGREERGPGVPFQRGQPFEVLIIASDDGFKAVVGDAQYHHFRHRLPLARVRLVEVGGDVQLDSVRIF

Row | Kd [µM] | Structure (SMILES)
1 | > 1000 | CO[C@H]1O[C@H](CO)[C@H](O)[C@H](n2cc(-c3ccccc3NS(=O)(=O)c3cc(C(F)(F)F)cc(C(F)(F)F)c3)nn2)[C@H]1O
2 | > 600 | O=S(=O)(Nc1ccccc1-c1cn([C@@H]2[C@@H](O)[C@@H](Sc3ccc(Cl)c(Cl)c3)O[C@H](CO)[C@@H]2O)nn1)c1cc(C(F)(F)F)cc(C(F)(F)F)c1
